Measurements taken from the supplement of paper PMC10307832.

Columns and labels:
Test in all cases: relative viability (nuclei count vs DMSO), 5 days (fraction); higher = more cells survive
[1] = compound: COc1cccc2cc(-c3nc([C@H]4CC[C@H](C(=O)O)CC4)n4ncnc(N)c34)[nH]c12 [OSI-027] + Nc1ncn([C@H]2C[C@H](O)[C@@H](CO)O2)c(=O)n1 [Decitabine] (partner 2 µM)
Procedure, shortened: (§1)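 Lung cancer cell lines in 1536-well plates were dosed by pin tool the day after seeding, either with one drug alone or with a fixed anchor-drug dose plus five library-drug doses (not always all listed) in √10 steps. After 5 days, cells were fixed and their nuclei stained in one step (final 0.05% Triton X-100, 1% formaldehyde, 1 ug/ml Hoechst), then counted on 4× images. Relative viability is the nuclei count in treated wells divided by that in vehicle wells. Values are medians of duplicate plates.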

[2] = compound: CCCS(=O)(=O)Nc1ccc(F)c(C(=O)c2c[nH]c3ncc(-c4ccc(Cl)cc4)cc23)c1F [Vemurafenib] + CC1(C)CCC(c2ccc(Cl)cc2)=C(CN2CCN(c3ccc(C(=O)NS(=O)(=O)c4ccc(N[C@H](CCN5CCOCC5)CSc5ccccc5)c(S(=O)(=O)C(F)(F)F)c4)cc3)CC2)C1 [Navitoclax] (partner 0.5 µM)
Procedure, shortened: as §1

[3] = compound: Cc1nc(NC(=O)N2CCC[C@H]2C(N)=O)sc1-c1ccnc(C(C)(C)C(F)(F)F)c1 [Alpelisib] + O=C(CCCCCCC(=O)Nc1ccccc1)NO [Vorinostat] (partner 1 µM)
Procedure, shortened: as §1

[4] = compound: Cc1nc(NC(=O)N2CCC[C@H]2C(N)=O)sc1-c1ccnc(C(C)(C)C(F)(F)F)c1 [Alpelisib] + CC(C)C[C@H](NC(=O)[C@H](Cc1ccccc1)NC(=O)c1cnccn1)B(O)O [Bortezomib] (partner 0.002 µM)
Procedure, shortened: as §1

Cell Line | relative viability ([1]; first compound 0.01 µM) | relative viability ([1]; first compound 0.03162 µM) | relative viability ([1]; first compound 0.1 µM) | relative viability ([1]; first compound 0.3162 µM) | relative viability ([1]; first compound 1 µM) | relative viability ([2]; first compound 0.03162 µM) | relative viability ([2]; first compound 0.1 µM) | relative viability ([2]; first compound 0.3162 µM) | relative viability ([2]; first compound 1 µM) | relative viability ([3]; first compound 0.04 µM) | relative viability ([3]; first compound 0.1265 µM) | relative viability ([3]; first compound 0.4 µM) | relative viability ([3]; first compound 1.265 µM) | relative viability ([3]; first compound 4 µM) | relative viability ([4]; first compound 0.04 µM) | relative viability ([4]; first compound 0.4 µM) | relative viability ([4]; first compound 1.265 µM) | relative viability ([4]; first compound 4 µM) | relative viability ([4]; first compound 0.1265 µM)
LCLC-97TM1 | 0.256 | 0.23 | 0.195 | 0.174 | 0.22 | 0.411 | 0.371 | 0.533 | 0.486 | 0.673 | 0.58 | 0.63 | 0.33 | 0.291 | 0.682 | 0.86 | 0.384 | 0.237 | 
LOU-NH91 | 0.804 | 0.825 | 0.73 | 0.718 | 0.613 | 0.698 | 0.369 |  | 0.759 | 0.936 | 0.785 | 0.823 | 0.715 | 0.556 | 0.478 | 0.51 | 0.537 | 0.474 | 0.457
LU99A | 0.773 | 0.966 | 0.675 | 0.485 | 0.216 | 0.714 | 0.752 | 0.869 | 0.796 | 0.462 | 0.488 | 0.508 | 0.415 | 0.334 | 1.07 | 1.14 | 0.874 | 0.614 | 1.12
LXF-289 | 0.378 | 0.355 | 0.379 | 0.367 | 0.349 | 0.853 | 0.883 | 0.951 | 1.03 | 0.741 | 0.685 | 0.942 | 0.723 | 0.766 | 1 | 1.07 | 0.902 | 1.04 | 1.03
NCI-H23 | 0.296 | 0.336 | 0.305 | 0.278 | 0.268 | 0.894 | 0.9 | 0.888 | 0.796 | 0.634 | 0.441 | 0.411 | 0.414 | 0.332 | 0.941 | 0.773 | 0.559 | 0.766 | 0.941
NCI-H322M | 0.66 | 0.658 | 0.694 | 0.662 | 0.542 | 1.09 |  | 1.44 | 1.1 | 0.897 | 0.962 | 0.954 | 0.733 | 0.634 | 1.23 | 1.1 | 1.1 | 0.857 | 1.06
NCI-H441 | 0.266 | 0.263 | 0.261 | 0.293 | 0.259 | 0.798 | 0.614 |  | 0.735 | 0.681 | 0.716 | 0.961 | 0.603 | 0.401 | 0.631 | 0.531 | 0.329 | 0.385 | 0.45
NCI-H460 | 0.544 | 0.502 | 0.541 | 0.456 | 0.241 | 1.17 | 1.14 | 1.02 | 1.07 | 0.717 | 0.788 | 0.938 | 0.564 | 0.434 | 1 | 1.13 | 0.646 | 0.366 | 0.939
NCI-H520 | 0.583 | 0.482 | 0.47 | 0.363 | 0.228 | 1.04 | 1.16 | 1.11 | 1.15 | 0.611 | 0.743 | 0.629 | 0.603 | 0.463 | 0.59 | 0.553 | 0.623 | 0.319 | 0.687
